Test results reported in the NIST ThermoML archive (doi:10.1016/j.jct.2007.10.010).

Legend:
[1] = 101 kPa, Liquid
[2] = refractive index (Na D-line) (dimensionless); conditions: 298.15 K; 101.33 kPa; Liquid; Standard Abbe refractometry
[3] = xn = mol fraction of the nth substance listed; conditions: 101 kPa, Liquid

Cc1cc(C)cc(C)c1 [1,3,5-trimethylbenzene]
[1]
Conditions	mass density [kg/m3]
298.15 K	861.13
308.15 K	852.89
318.15 K	844.78
328.15 K	836.65

Conditions	refractive index
[2]	1.4967

Cc1cc(C)cc(C)c1 [1,3,5-trimethylbenzene] + CCCCCCCC
[3]
Conditions	mass density [kg/m3]
298.15 K, x2 = 0	861.13
298.15 K, x2 = 0.08503	845.14
298.15 K, x2 = 0.1479	833.6
298.15 K, x2 = 0.2132	821.88
298.15 K, x2 = 0.2717	811.56
298.15 K, x2 = 0.3177	803.61
298.15 K, x2 = 0.3864	791.95
298.15 K, x2 = 0.463	779.23
298.15 K, x2 = 0.5407	766.69
298.15 K, x2 = 0.6037	756.73
298.15 K, x2 = 0.6725	746.08
298.15 K, x2 = 0.723	738.44
298.15 K, x2 = 0.7969	727.45
298.15 K, x2 = 0.8623	717.95
298.15 K, x2 = 0.9422	706.63
308.15 K, x2 = 0	852.89
308.15 K, x2 = 0.08503	836.88
308.15 K, x2 = 0.1386	827.02
308.15 K, x2 = 0.2132	813.6
308.15 K, x2 = 0.2717	803.29
308.15 K, x2 = 0.3177	795.34
308.15 K, x2 = 0.3864	783.69
308.15 K, x2 = 0.463	770.99
308.15 K, x2 = 0.5407	758.45
308.15 K, x2 = 0.6037	748.49
308.15 K, x2 = 0.6725	737.87
308.15 K, x2 = 0.723	730.2
308.15 K, x2 = 0.7969	719.24
308.15 K, x2 = 0.8623	709.74
308.15 K, x2 = 0.9422	698.43
318.15 K, x2 = 0	844.78
318.15 K, x2 = 0.06984	831.58
318.15 K, x2 = 0.1363	819.34
318.15 K, x2 = 0.2001	807.84
318.15 K, x2 = 0.2695	795.59
318.15 K, x2 = 0.3464	782.35
318.15 K, x2 = 0.398	773.67
318.15 K, x2 = 0.4464	765.65
318.15 K, x2 = 0.536	751.14
318.15 K, x2 = 0.5995	741.12
318.15 K, x2 = 0.6643	731.1
318.15 K, x2 = 0.7301	721.16
318.15 K, x2 = 0.7839	713.18
318.15 K, x2 = 0.8537	703.03
318.15 K, x2 = 0.9507	689.3
328.15 K, x2 = 0	836.65
328.15 K, x2 = 0.06984	823.48
328.15 K, x2 = 0.1363	811.25
328.15 K, x2 = 0.2001	799.75
328.15 K, x2 = 0.2677	787.84
328.15 K, x2 = 0.3464	774.3
328.15 K, x2 = 0.398	765.62
328.15 K, x2 = 0.4622	755.02
328.15 K, x2 = 0.5368	743
328.15 K, x2 = 0.6022	732.7
328.15 K, x2 = 0.6552	724.51
328.15 K, x2 = 0.7389	711.86
328.15 K, x2 = 0.7839	705.21
328.15 K, x2 = 0.8537	695.07
328.15 K, x2 = 0.9507	681.35

Cc1cccc(C)c1 [1,3-dimethylbenzene]
[1]
Conditions	mass density [kg/m3]
298.15 K	859.85
308.15 K	851.2
318.15 K	842.66
328.15 K	834.13

Conditions	refractive index
[2]	1.4945

Cc1cccc(C)c1 [1,3-dimethylbenzene] + CCCCCCCC
[3]
Conditions	mass density [kg/m3]
298.15 K, x2 = 0	859.85
298.15 K, x2 = 0.06642	845.86
298.15 K, x2 = 0.1397	831.1
298.15 K, x2 = 0.2052	818.49
298.15 K, x2 = 0.276	805.42
298.15 K, x2 = 0.323	797.05
298.15 K, x2 = 0.3982	784.13
298.15 K, x2 = 0.4618	773.65
298.15 K, x2 = 0.5432	760.8
298.15 K, x2 = 0.5993	752.28
298.15 K, x2 = 0.6755	741.14
298.15 K, x2 = 0.7284	733.68
298.15 K, x2 = 0.7851	725.91
298.15 K, x2 = 0.8583	716.27
298.15 K, x2 = 0.925	707.79
308.15 K, x2 = 0	851.2
308.15 K, x2 = 0.06642	837.23
308.15 K, x2 = 0.1397	822.5
308.15 K, x2 = 0.2052	809.92
308.15 K, x2 = 0.276	796.89
308.15 K, x2 = 0.323	788.53
308.15 K, x2 = 0.3954	776.12
308.15 K, x2 = 0.4618	765.21
308.15 K, x2 = 0.5432	752.4
308.15 K, x2 = 0.5993	743.9
308.15 K, x2 = 0.6755	732.79
308.15 K, x2 = 0.7284	725.36
308.15 K, x2 = 0.7851	717.64
308.15 K, x2 = 0.8583	708.01
308.15 K, x2 = 0.925	699.57
318.15 K, x2 = 0	842.66
318.15 K, x2 = 0.0687	828.23
318.15 K, x2 = 0.1168	818.54
318.15 K, x2 = 0.207	801.13
318.15 K, x2 = 0.2651	790.45
318.15 K, x2 = 0.3289	779.13
318.15 K, x2 = 0.4087	765.6
318.15 K, x2 = 0.4672	756.08
318.15 K, x2 = 0.5321	745.88
318.15 K, x2 = 0.6067	734.61
318.15 K, x2 = 0.6634	726.39
318.15 K, x2 = 0.7288	717.2
318.15 K, x2 = 0.7923	708.59
318.15 K, x2 = 0.8634	699.33
318.15 K, x2 = 0.9502	688.48
328.15 K, x2 = 0	834.13
328.15 K, x2 = 0.0687	819.75
328.15 K, x2 = 0.1168	810.1
328.15 K, x2 = 0.207	792.73
328.15 K, x2 = 0.2651	782.09
328.15 K, x2 = 0.3289	770.81
328.15 K, x2 = 0.4087	757.32
328.15 K, x2 = 0.4672	747.81
328.15 K, x2 = 0.5287	738.2
328.15 K, x2 = 0.6067	726.45
328.15 K, x2 = 0.6634	718.26
328.15 K, x2 = 0.7288	709.11
328.15 K, x2 = 0.7923	700.55
328.15 K, x2 = 0.8634	691.33
328.15 K, x2 = 0.9502	680.52

c1ccccc1 [benzene]
[1]
Conditions	mass density [kg/m3]
298.15 K	873.62
308.15 K	863.01
318.15 K	852.16
328.15 K	841.49

Conditions	refractive index
[2]	1.4979

c1ccccc1 [benzene] + CCCCCCCC
[3], x2 = 0
Conditions	mass density [kg/m3]
298.15 K	873.62
308.15 K	863.01
318.15 K	852.16
328.15 K	841.49
